Laboratory results as given in patent publication US9233951B2, “Heterocyclic compounds as pesticides” (Bayer Intellectual Property GmbH, priority 2010, dated 2016).
Where two headings read alike, the source gives them in different places.

Key:
physchem = type: physicochemical
Method: 1 Method Description for Determination of the logP values and Mass Detection
Eluents for determination in the acidic range (pH 3.4): • Eluent A: acetonitrile+1 ml formic acid/l.
The λmax values were determined in the maxima of the chromatographic signals using the UV spectra from 200 nm to 400 nm. The mass was detected (M^+, m/z) by means of an Agilent MSD mass spectrometer.

[1] = test system: green peach aphid (Myzus persicae); test: Myzus persicae test (spray treatment); type: in vivo; conditions: foliar, 144 h, read-out: efficacy in %
Method: Myzus persicae Test (Spray Treatment)
• Solvent: 78 parts by weight of acetone • 1.5 parts by weight of dimethylformamide • Emulsifier: 0.5 part by weight of alkylaryl polyglycol ether
To prepare an appropriate active ingredient preparation, 1 part by weight of active ingredient is mixed with the stated amounts of solvent and emulsifier, and the concentrate is diluted with emulsifier-containing water to the desired concentration. Discs of Chinese cabbage (Brassica pekinensis) infested by all stages of the green peach aphid (Myzus persicae) are sprayed with an active ingredient preparation of the desired concentration.
After 6 days, the efficacy in % is determined. 100% means that all of the aphids have been killed; 0% means that none of the aphids have been killed.

[2] = test system: armyworm (Spodoptera frugiperda); test: Spodoptera frugiperda test (spray treatment); type: in vivo; conditions: application rate 500 g/ha; maize leaf discs sprayed; after 7 days; 100% = all caterpillars killed
Method: Spodoptera frugiperda Test (Spray Treatment)
• Solvent: 78.0 parts by weight of acetone • 1.5 parts by weight of dimethylformamide • Emulsifier: 0.5 part by weight of alkylaryl polyglycol ether
To prepare an appropriate active ingredient preparation, 1 part by weight of active ingredient is mixed with the stated amounts of solvent and emulsifier, and the concentrate is diluted with emulsifier-containing water to the desired concentration. Discs of maize leaves (Zea mays) are sprayed with an active ingredient preparation of the desired concentration and, after drying, populated with the armyworm (Spodoptera frugiperda).
After 7 days, the efficacy in % is determined. 100% means that all caterpillars have been killed; 0% means that none of the caterpillars have been killed.

[3] = reverse-phase HPLC column (C 18), pH 3.4, HPLC, reverse-phase C 18, acidic range pH 3.4, 55° C., table of compounds, read-out: logP (HCO2H)
[4] = application rate 500 g/ha, Chinese cabbage leaf discs sprayed, after 6 days, 100% = all aphids killed
[5] = reverse-phase HPLC column (C 18), pH 3.4, HPLC-MS value printed in the preparation example text, acidic range pH 3.4, read-out: logP (HCOOH)

SMILES | pest or weed control at 500 g/ha ([1]; in Brassica rapa) [%] | chromatographic logP (physchem; [3]) | pest or weed control at 500 g/ha [1, 4] [%] | chromatographic logP (physchem; [5]) | further results
O=C(NCC(F)F)c1csc(-c2cccnc2)n1 [Compound 33, N-(2,2-Difluoroethyl)-2-(pyridin-3-yl)-1,3-thiazole-4-carboxamide] | 100 |  |  |  | chromatographic logP (physchem; pH 3.4, HPLC, reverse-phase C 18, acidic range pH 3.4, 55° C., table of compounds, read-out: logP (HCO2H)): 1.22; chromatographic logP (physchem; pH 3.4, HPLC-MS value printed in the preparation example text, acidic range pH 3.4, read-out: logP (HCOOH)): 1.18
CSC[C@H](C)NC(=O)c1nnc(-c2cccnc2)o1 [Compound 35] |  | 1.39 | 80 |  | 
O=C(NCC(F)(F)F)c1ccn(-c2cccnc2)c1 [Compound 36, 1-(Pyridin-3-yl)-N-(2,2,2-trifluoroethyl)pyrrole-3-carboxamide] | 90 | 1.24 |  | 1.24 | 
CC(F)(F)CNC(=O)c1cn(-c2cccnc2)nn1 [Compound 37, N-(2,2-Difluoropropyl)-1-(pyridin-3-yl)-1H-1,2,3-triazole-4-carboxamide] | 100 | 1.21 |  | 1.25 | efficacy in % [2]: 100%
CC(F)(F)CNC(=O)c1cc(-c2cccnc2)ns1 [Compound 38, N-(2,2-Difluoropropyl)-3-(pyridin-3-yl)-1,2-thiazole-5-carboxamide] | 100 | 1.33 |  | 1.33 | 
O=C(NCc1ncccn1)C1CN=C(c2cccnc2)S1 (stereo not shown) [Compound 43] |  |  | 100 |  | chromatographic logP (physchem; pH 3.4, logP (HCO2H)): 0.32
O=C(NCC(F)(F)F)C1CN=C(c2cncnc2)S1 (stereo not shown) [Compound 45] |  | 1.4 | 100 |  | 
